# What was measured:
# Format in all cases: in vivo
# [1] = system: green foxtail (Setaria viridis); assay: pre-emergence herbicidal activity, green foxtail; settings: 1 kg/Ha, about fourteen days, read-out: pre-emergence herbicidal activity (% control) SETVI
# Description: (§1) This example sets forth the methods of herbicidal testing conducted on the specific compounds set forth below. Specifically, the compounds referenced below were tested for pre- and post-emergence herbicidal activity using a variety of crops and weeds. The test plants include, but are not limited to, soybean (Glycine max -- var. Winchester), field corn (Zea mays var. Pioneer 3732), wheat (Triticum aestivum var. Lew), morningglory (Ipomea lacunosa or Ipomea hederacea), velvetleaf (Abutilon theophrasti), green foxtail (Setaria viridis), Johnsongrass (Sorghum halepense), blackgrass (Aloepecurus myosuroides), common chickweed (Stellaria media), and common cocklebur (Xanthium strumarium L.).
# (§2) In the post-emergence test, seeds of the plant species named above were planted in flats containing the appropriate soil mixture where they were maintained to allow the seeds to germinate. When the plants in these flats reached the proper stage of growth, flats for the pre-emergence tests were planted in a like manner. The flats containing the post-emergence and pre-emergence test plant species were then sprayed with an appropriately concentrated water/acetone solution of test compound. Once treated the flats were maintained, along with untreated controls, for about fourteen days. All treated plants were then examined for phytotoxicity, which was expressed as percent control where 0 is no effect and 100 is complete control. Effective rates of application for the compounds of the present invention range from 0.001 to 3 kg/ha, more likely from […] to 1 Kg/ha.
# (§3) Herbicidal activity data at selected application rates are in Tables 4 and 5. The test compounds are identified by numbers correspond to those in Table 1.
# (§4) Rate of application of test compound is 1 kg/Ha
# (§5) SOY is soybean, WHT is wheat, CRN is corn, ABUTH is velvetleaf, IPOSS is
# (§6) morningglory, STEME is chickweed, XANPE is cocklebur, ALOMY is blackgrass, […]
# [2] = system: field corn (Zea mays var. Pioneer 3732); assay: pre-emergence herbicidal activity, corn; settings: 1 kg/Ha, about fourteen days, read-out: pre-emergence herbicidal activity (% control) CRN
# Description: as §1, §2, §3, §4, §5, §6
# [3] = system: green foxtail (Setaria viridis); assay: post-emergence herbicidal activity, green foxtail; settings: 1 Kg/Ha, about fourteen days, read-out: post-emergence herbicidal activity (% control) SETVI
# Description: as §1, §2, §3, §5
# (§7) morningglory, STEME is chickweed, XANPE is cocklebur, ALOMY is blackgrass,
# (§8) Rate of application of test compound is 1 Kg/Ha. The definitions as shown under Table 4 apply to Table 5.
# [4] = system: blackgrass (Aloepecurus myosuroides); assay: pre-emergence herbicidal activity, blackgrass; settings: Alopecurus myosuroides, 1 kg/Ha, about fourteen days, read-out: pre-emergence herbicidal activity (% control) ALOMY
# Description: as §1, §2, §3, §4, §5, §6
# [5] = system: common chickweed (Stellaria media); assay: pre-emergence herbicidal activity, chickweed; settings: 1 kg/Ha, about fourteen days, read-out: pre-emergence herbicidal activity (% control) STEME
# Description: as §1, §2, §3, §4, §5, §6
# [6] = system: Johnsongrass (Sorghum halepense); assay: pre-emergence herbicidal activity, johnsongrass; settings: 1 kg/Ha, about fourteen days, read-out: pre-emergence herbicidal activity (% control) SORHA
# Description: as §1, §2, §3, §4, §5, §6
# [7] = system: common cocklebur (Xanthium strumarium L.); assay: pre-emergence herbicidal activity, cocklebur; settings: 1 kg/Ha, about fourteen days, read-out: pre-emergence herbicidal activity (% control) XANPE
# Description: as §1, §2, §3, §4, §5, §6
# [8] = system: morningglory (Ipomea lacunosa or Ipomea hederacea); assay: post-emergence herbicidal activity, morningglory; settings: Ipomoea, 1 Kg/Ha, about fourteen days, read-out: post-emergence herbicidal activity (% control) IPOSS
# Description: as §1, §2, §3, §5, §7, §8
# [9] = system: wheat (Triticum aestivum var. Lew); assay: post-emergence herbicidal activity, wheat; settings: 1 Kg/Ha, about fourteen days, read-out: post-emergence herbicidal activity (% control) WHT
# Description: as §1, §2, §3, §5, §7, §8
# [10] = system: morningglory (Ipomea lacunosa or Ipomea hederacea); assay: pre-emergence herbicidal activity, morningglory; settings: Ipomoea, 1 kg/Ha, about fourteen days, read-out: pre-emergence herbicidal activity (% control) IPOSS
# Description: as §1, §2, §3, §4, §5, §6
# [11] = system: velvetleaf (Abutilon theophrasti); assay: pre-emergence herbicidal activity, velvetleaf; settings: 1 kg/Ha, about fourteen days, read-out: pre-emergence herbicidal activity (% control) ABUTH
# Description: as §1, §2, §3, §4, §5, §6
# [12] = system: soybean (Glycine max -- var. Winchester); assay: pre-emergence herbicidal activity, soybean; settings: 1 kg/Ha, about fourteen days, read-out: pre-emergence herbicidal activity (% control) SOY
# Description: as §1, §2, §3, §4, §5, §6
# [13] = system: field corn (Zea mays var. Pioneer 3732); assay: post-emergence herbicidal activity, corn; settings: 1 Kg/Ha, about fourteen days, read-out: post-emergence herbicidal activity (% control) CRN
# Description: as §1, §2, §3, §5, §7, §8
# [14] = system: Johnsongrass (Sorghum halepense); assay: post-emergence herbicidal activity, johnsongrass; settings: 1 Kg/Ha, about fourteen days, read-out: post-emergence herbicidal activity (% control) SORHA
# Description: as §1, §2, §3, §5, §7, §8
# [15] = system: soybean (Glycine max -- var. Winchester); assay: post-emergence herbicidal activity, soybean; settings: 1 Kg/Ha, about fourteen days, read-out: post-emergence herbicidal activity (% control) SOY
# Description: as §1, §2, §3, §5, §7, §8
# [16] = system: velvetleaf (Abutilon theophrasti); assay: post-emergence herbicidal activity, velvetleaf; settings: 1 Kg/Ha, about fourteen days, read-out: post-emergence herbicidal activity (% control) ABUTH
# Description: as §1, §2, §3, §5, §7, §8
# [17] = system: wheat (Triticum aestivum var. Lew); assay: pre-emergence herbicidal activity, wheat; settings: 1 kg/Ha, about fourteen days, read-out: pre-emergence herbicidal activity (% control) WHT
# Description: as §1, §2, §3, §4, §5, §6
# [18] = system: common cocklebur (Xanthium strumarium L.); assay: post-emergence herbicidal activity, cocklebur; settings: 1 Kg/Ha, about fourteen days, read-out: post-emergence herbicidal activity (% control) XANPE
# Description: as §1, §2, §3, §5, §7, §8
SMILES,activity at 1000 g/ha [1] [%],activity at 1000 g/ha [2] [%],activity at 1000 g/ha [3] [%],activity at 1000 g/ha [4] [%],activity at 1000 g/ha [5] [%],activity at 1000 g/ha [6] [%],activity at 1000 g/ha [7] [%],activity at 1000 g/ha [8] [%],activity at 1000 g/ha [9] [%],activity at 1000 g/ha [10] [%],activity at 1000 g/ha [11] [%],activity at 1000 g/ha [12] [%],activity at 1000 g/ha [13] [%],activity at 1000 g/ha [14] [%],activity at 1000 g/ha [15] [%],activity at 1000 g/ha [16] [%],activity at 1000 g/ha [17] [%],activity at 1000 g/ha [18] [%]
CCOC(=O)CN1Cc2c(-n3c(=O)cc(C(F)(F)F)n(C)c3=O)ccc(Cl)c2C1=O [Compound 7],70,70,60,40,60,55,50,40,20,80,100,70,40,40,60,80,30,60
C#CCN1Cc2c(-n3c(=O)cc(C(F)(F)F)n(C)c3=O)ccc(Cl)c2C1=O [Compound 8],100,100,100,100,100,100,100,100,100,100,100,100,100,100,100,100,100,100
CN1Cc2c(-n3c(=O)cc(C(F)(F)F)n(C)c3=O)ccc(Cl)c2C1=O [Compound 9],100,100,70,100,100,100,100,90,50,100,100,100,50,50,100,100,100,70
Cn1c(C(F)(F)F)cc(=O)n(-c2ccc(Cl)c3c2CN(Cc2ccccc2)C3=O)c1=O [Compound 10],100,90,60,80,100,100,80,40,40,80,100,80,60,40,65,100,70,50
CCCCN1Cc2c(-n3c(=O)cc(C(F)(F)F)n(C)c3=O)ccc(Cl)c2C1=O [Compound 11],100,100,100,100,100,100,100,95,100,100,100,100,80,90,95,100,100,100
Cn1c(C(F)(F)F)cc(=O)n(-c2ccc(Cl)c3c2CNC3=O)c1=O [Compound 12],100,100,100,100,100,100,100,75,70,100,100,100,70,60,95,100,100,95
CCCN1Cc2c(-n3c(=O)cc(C(F)(F)F)n(C)c3=O)ccc(Cl)c2C1=O [Compound 13],100,100,100,100,100,100,100,100,100,100,100,100,100,100,100,100,100,95
"Cn1c(C(F)(F)F)cc(=O)n(-c2ccc(Cl)c3c2CN(C(C)(C)C)C3=O)c1=O [Compound 14, 3-[7-chloro-2-(1,1-dimethylethyl)isoindolin-1-on-4-yl]-1-methyl-6-trifluoromethyl-2,4(1H,3H)-pyrimidinedione]",100,100,100,100,100,100,100,90,100,100,100,100,80,100,100,100,100,100
Cn1c(C(F)(F)F)cc(=O)n(-c2c(Cl)cc(Cl)c3c2CNC3=O)c1=O [Compound 15],100,95,60,100,60,100,100,100,50,100,100,100,60,40,70,100,95,60
